IC50 data for eleven compounds are collected here from patent US8889712B2, “IAP antagonists” (Bristol-Myers Squibb Company, priority 2012, dated 2014).

The target in one assay is T1, XIAP BIR3 (Homo sapiens, UniProt P98170).
T1 construct: His-BIR3 (241-356, XIAP)
Nature of the assay: XIAP-BIR3/SMAC Homogeneous Time Resolved Fluorescence (HTRF) Assay. Type of assay: binding. A digest of the protocol: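 Competition HTRF between XIAP-BIR3 and SMAC; reaction 60 min at room temperature, then anti-6×His-terbium Fab detection for a further 30 min.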
(In TR-FRET formats the signal depends on donor and acceptor labels being close together.)

For a further assay, the target named is T2, XIAP BIR2-3 (Homo sapiens, UniProt P98170, C202A/C213G).
T2 construct: His-BIR2-3 (125-356, C202A/C213G, XIAP)
T2 sequence (P98170 125-356 C202A/C213G): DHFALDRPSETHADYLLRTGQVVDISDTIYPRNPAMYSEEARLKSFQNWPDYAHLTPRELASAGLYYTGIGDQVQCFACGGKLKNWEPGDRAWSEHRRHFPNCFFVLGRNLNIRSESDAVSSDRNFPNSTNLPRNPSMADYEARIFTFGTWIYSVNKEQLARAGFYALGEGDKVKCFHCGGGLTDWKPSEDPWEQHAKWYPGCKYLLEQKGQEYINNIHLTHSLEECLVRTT
Nature of the assay: XIAP-BIR2-3 dimeric SMAC Peptide Homogeneous Time Resolved Fluorescence (HTRF) Assay. It is filed as binding. The procedure: B. […] Assays were performed in black, flat-bottom, 384-well plates. […] Compounds were dissolved at 3 mM in dimethylsulfoxide (DMSO) and evaluated at eleven serially diluted concentrations. IC50 and Ki values were derived by non-linear regression analysis.

[1] abbreviates: 1 nM N-His-BIR3 (241-356, XIAP), 5 nM fluorescein labeled SMAC peptide, HTRF signal, read-out: XIAP BIR3 IC50.
The mark [2] stands for this setting: 0.5 nM N-His-BIR2-3 (125-356, C202A/C213G, XIAP), 20 nM fluorescein labeled dimeric SMAC peptide, HTRF signal, read-out: XIAP BIR2-3 IC50.

Like-named read-outs stand apart in the source and are kept apart here.

T1 sequence (P98170 241-356): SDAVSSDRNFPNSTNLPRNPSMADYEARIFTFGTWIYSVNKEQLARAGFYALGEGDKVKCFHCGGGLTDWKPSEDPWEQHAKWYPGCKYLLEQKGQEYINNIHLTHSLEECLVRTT

Consider `CN[C@@H](C)C(=O)N[C@H](C(=O)N1C[C@@H](c2ccc3c(c2)CN(C(=O)[C@@H](NC(=O)[C@H](C)NC)C(C)(C)C)[C@H](C(=O)N[C@@H]2CCCc4ccccc42)C3)C[C@H]1C(=O)N[C@@H](Cc1ccccc1)C(=O)OC)C(C)(C)C` [Example 76, (S)-Methyl 2-((2S,4R)-1-((S)-3,3-dimethyl-2-((S)-2-(methylamino)propanamido)butanoyl)-4-((S)-2-((S)-3,3-dimethyl-2-((S)-2-(methylamino)propanamido)butanoyl)-3-(((R)-1,2,3,4-tetrahydronaphthalen-1-yl)carbamoyl)-1,2,3,4-tetrahydroisoquinolin-7-yl)pyrrolidine-2-carboxamido)-3-phenylpropanoate], for which the results for the IC50 against XIAP BIR3 and at XIAP BIR2-3 were 18.9 nM and 2.5 nM, respectively.
With `CN[C@@H](C)C(=O)N[C@H](C(=O)N1C[C@@H](NC(=O)c2ccc3c(c2)CN(C(=O)[C@@H](NC(=O)[C@H](C)NC)C24CC5CC(CC(C5)C2)C4)[C@H](C(=O)NC2CCCc4ccccc42)C3)C[C@H]1C(=O)NC1CCCc2ccccc21)C(C)(C)C` (stereo partly drawn) [Example 10, (S)-2-((S)-2-((3S,5S,7S)-Adamantan-1-yl)-2-((S)-2-(methylamino)propanamido)acetyl)-N^7-((3S,5S)-1-((S)-3,3-dimethyl-2-((S)-2-(methylamino)propanamido)butanoyl)-5-(((R)-1,2,3,4-tetrahydronaphthalen-1-yl)carbamoyl)pyrrolidin-3-yl)-N^3-((R)-1,2,3,4-tetrahydronaphthalen-1-yl)-1,2,3,4-tetrahydroisoquinoline-3,7-dicarboxamide], the values for the IC50 at XIAP BIR3 (setting [1]) and on XIAP BIR2-3 (setting [2]) were 63 nM and 4 nM, respectively.
As for `CN[C@@H](C)C(=O)N[C@H](C(=O)N1C[C@@H](c2ccc3c(c2)CN(C(=O)[C@@H](NC(=O)[C@H](C)NC)C(C)(C)SCCO)[C@H](C(=O)N[C@@H]2CCCc4ccccc42)C3)C[C@H]1C(=O)N[C@@H]1CCCc2ccccc21)C(C)(C)C` [Example 28, (S)-7-((3R,5S)-1-((S)-3,3-Dimethyl-2-((S)-2-(methylamino)propanamido)butanoyl)-5-(((R)-1,2,3,4-tetrahydronaphthalen-1-yl)carbamoyl)pyrrolidin-3-yl)-2-((R)-3-((2-hydroxyethyl)thio)-3-methyl-2-((S)-2-(methylamino)propanamido)butanoyl)-N—((R)-1,2,3,4-tetrahydronaphthalen-1-yl)-1,2,3,4-tetrahydroisoquinoline-3-carboxamide], the IC50 worked out at 5.1 nM at XIAP BIR3 (setting [1]) and 2.2 nM at XIAP BIR2-3 (setting [2]).
On to `CN[C@@H](C)C(=O)N[C@H](C(=O)N1C[C@@H](c2ccc3c(c2)CN(C(=O)[C@@H](NC(=O)[C@H](C)NC)C(C)(C)C)[C@H](C(=O)N[C@@H]2CCCc4ccccc42)C3)C[C@H]1C(=O)N[C@@H](Cc1ccccc1)C(=O)Nc1ccc(-c2cnco2)cc1)C(C)(C)C` [Example 57, (S)-2-((S)-3,3-Dimethyl-2-((S)-2-(methylamino)propanamido)butanoyl)-7-((3R,5S)-1-((S)-3,3-dimethyl-2-((S)-2-(methylamino)propanamido)butanoyl)-5-(((S)-1-((4-(oxazol-5-yl)phenyl)amino)-1-oxo-3-phenylpropan-2-yl)carbamoyl)pyrrolidin-3-yl)-N-((R)-1,2,3,4-tetrahydronaphthalen-1-yl)-1,2,3,4-tetrahydroisoquinoline-3-carboxamide], for which the results for the IC50 on XIAP BIR3 (setting [1]) and on XIAP BIR2-3 (setting [2]) were 9.9 nM and 2.6 nM, respectively.
The like results for `CN[C@@H](C)C(=O)N[C@H](C(=O)N1CC(c2ccc3c(c2)CN(C(=O)[C@@H](NC(=O)[C@H](C)NC)C(C)(C)SCC(=O)O)[C@H](C(=O)NC2CCCc4ccccc42)C3)C[C@H]1C(=O)NC1CCCc2ccccc21)C(C)(C)C` (stereo partly drawn) [Example 32, 2-(((R)-4-((S)-7-((3R,5S)-1-((S)-3,3-Dimethyl-2-((S)-2-(methylamino)propanamido)butanoyl)-5-(((R)-1,2,3,4-tetrahydronaphthalen-1-yl)carbamoyl)pyrrolidin-3-yl)-3-(((R)-1,2,3,4-tetrahydronaphthalen-1-yl)carbamoyl)-3,4-dihydroisoquinolin-2(1H)-yl)-2-methyl-3-((S)-2-(methylamino)propanamido)-4-oxobutan-2-yl)thio)acetic acid, 2TFA] were, in that order, 8.7 nM and 1.9 nM.
As to `CN[C@@H](C)C(=O)N[C@H](C(=O)N1Cc2cc([C@H]3C[C@@H](C(=O)N[C@@H]4CCCc5ccccc54)N(C(=O)[C@@H](NC(=O)[C@H](C)NC)C(C)(C)C)C3)ccc2C[C@H]1C(=O)N[C@H](COCCO)Cc1ccccc1)C(C)(C)C` [Example 44, (S)-2-((S)-3,3-Dimethyl-2-((S)-2-(methylamino)propanamido)butanoyl)-7-((3R,5S)-1-((S)-3,3-dimethyl-2-((S)-2-(methylamino)propanamido)butanoyl)-5-(((R)-1,2,3,4-tetrahydronaphthalen-1-yl)carbamoyl)pyrrolidin-3-yl)-N—((S)-1-(2-hydroxyethoxy)-3-phenylpropan-2-yl)-1,2,3,4-tetrahydroisoquinoline-3-carboxamide], the IC50 was found to be 10.3 nM at XIAP BIR3 (setting [1]) and 17.4 nM at XIAP BIR2-3 (setting [2]).
In the case of `CN[C@@H](C)C(=O)N[C@H](C(=O)N1C[C@@H](c2ccc3c(c2)CN(C(=O)[C@@H](NC(=O)[C@H](C)NC)C(C)(C)C)[C@H](C(=O)N[C@@H]2CCCc4ccccc42)C3)C[C@H]1C(=O)N[C@@H](Cc1ccccc1)C(=O)N(C1CC1)C1CC1)C(C)(C)C` [Example 63, (S)-7-((3R,5S)-5-(((S)-1-(Dicyclopropylamino)-1-oxo-3-phenylpropan-2-yl)carbamoyl)-1-((S)-3,3-dimethyl-2-((S)-2-(methylamino)propanamido)butanoyl)pyrrolidin-3-yl)-2-((S)-3,3-dimethyl-2-((S)-2-(methylamino)propanamido)butanoyl)-N-((R)-1,2,3,4-tetrahydronaphthalen-1-yl)-1,2,3,4-tetrahydroisoquinoline-3-carboxamide], the IC50 was 16.7 nM on XIAP BIR3 (setting [1]) and 3 nM on XIAP BIR2-3 (setting [2]).
`CN[C@@H](C)C(=O)N[C@H](C(=O)N1Cc2cc([C@H]3C[C@@H](C(=O)N[C@@H]4CCCc5ccccc54)N(C(=O)[C@@H](NC(=O)[C@H](C)NC)C(C)(C)C)C3)ccc2C[C@H]1C(=O)N[C@@H](Cc1ccccc1)C(=O)O)C(C)(C)C` [Example 41, (S)-2-((S)-2-((S)-3,3-Dimethyl-2-((S)-2-(methylamino)propanamido)butanoyl)-7-((3R,5S)-1-((S)-3,3-dimethyl-2-((S)-2-(methylamino)propanamido)butanoyl)-5-(((R)-1,2,3,4-tetrahydronaphthalen-1-yl)carbamoyl)pyrrolidin-3-yl)-1,2,3,4-tetrahydroisoquinoline-3-carboxamido)-3-phenylpropanoic acid]: the 50% inhibitory concentration (IC50) at XIAP BIR3 (setting [1]) was 4.6 nM; at XIAP BIR2-3 (setting [2]), 1.5 nM.
For `CN[C@@H](C)C(=O)N[C@H](C(=O)N1Cc2cc(C(=O)N[C@H]3C[C@@H](C(=O)N[C@@H]4CCCc5ccccc54)N(C(=O)[C@@H](NC(=O)[C@H](C)NC)C(C)(C)C)C3)ccc2C[C@H]1C(=O)N[C@@H]1CCCc2ccccc21)C(c1ccccc1)c1ccccc1` [Example 89, (S)-N^7-((3S,5S)-1-((S)-3,3-dimethyl-2-((S)-2-(methylamino)propanamido)butanoyl)-5-(((R)-1,2,3,4-tetrahydronaphthalen-1-yl)carbamoyl)pyrrolidin-3-yl)-2-((S)-2-((S)-2-(methylamino)propanamido)-3,3-diphenylpropanoyl)-N^3-((R)-1,2,3,4-tetrahydronaphthalen-1-yl)-1,2,3,4-tetrahydroisoquinoline-3,7-dicarboxamide], in that order: 37.8 nM and 360 nM.
Take `CN[C@@H](C)C(=O)N[C@H](C(=O)N1CC(c2ccc3c(c2)CN(C(=O)[C@@H](NC(=O)[C@H](C)NC)C(C)(C)C)[C@H](C(=O)NC2CCCc4ccccc42)C3)C[C@H]1C(=O)NC(Cc1ccccc1)C(=O)NCc1ccc(OC)cc1)C(C)(C)C` (stereo in doubt) [Example 70, (S)-2-((S)-3,3-Dimethyl-2-((S)-2-(methylamino)propanamido)butanoyl)-7-((3S,5S)-1-((S)-3,3-dimethyl-2-((S)-2-(methylamino)propanamido)butanoyl)-5-(((S)-1-((4-methoxybenzyl)amino)-1-oxo-3-phenylpropan-2-yl)carbamoyl)pyrrolidin-3-yl)-N-((R)-1,2,3,4-tetrahydronaphthalen-1-yl)-1,2,3,4-tetrahydroisoquinoline-3-carboxamide]: the IC50 at XIAP BIR3 (setting [1]) was found to be 8.9 nM; at XIAP BIR2-3 (setting [2]) it was 2.2 nM.
As to `CN[C@@H](C)C(=O)N[C@H](C(=O)N1C[C@@H](c2ccc3c(c2)CN(C(=O)[C@@H](NC(=O)[C@H](C)NC)C(C)(C)C)[C@H](C(=O)N[C@@H]2CCCc4ccccc42)C3)C[C@H]1C(=O)N[C@@H](Cc1ccccc1)c1ncc(C)o1)C(C)(C)C` [Example 81, (S)-2-((S)-3,3-Dimethyl-2-((S)-2-(methylamino)propanamido)butanoyl)-7-((3R,5S)-1-((S)-3,3-dimethyl-2-((S)-2-(methylamino)propanamido)butanoyl)-5-(((S)-1-(5-methyloxazol-2-yl)-2-phenylethyl)carbamoyl)pyrrolidin-3-yl)-N—((R)-1,2,3,4-tetrahydronaphthalen-1-yl)-1,2,3,4-tetrahydroisoquinoline-3-carboxamide], the IC50 worked out at 13.5 nM on XIAP BIR3 (setting [1]) and 2.6 nM on XIAP BIR2-3 (setting [2]).

Broadly, the IC50 is the concentration that inhibits the measured activity by half.
